Experimental data taken from US20050020544A1, “Bicyclic CB2 cannabinoid receptor ligands” (priority 2002, published 2005).

Legend:
[1] = tested on: male Sprague-Dawley rats; assay: Chronic constriction nerve injury, neuropathic pain (Von Frey filaments); assay type: in vivo, rat
Source text: The aim of this study was to assess the potential analgesic effects of the novel bicyclic CB2 binding compounds in an animal model of neuropathic pain. A peripheral monopathy was induced in the right hind limb of rats following a chronic constriction of the sciatic nerve (Bennet, G. J. & Xie, Y-K., Pain 33: 87-107, 1988). The development of mechanical allodyna was monitored using an established behavioral test (Von Frey filaments).
Pre-surgery baseline values were ascertained as the mean of 2 pre-surgery values. Once the baseline values had been established, the animals were surgically prepared by constricting the right sciatic nerve with 4 chromic cat gut loose ligatures.
The design was randomized, performed in a masked fashion as to whether drug or vehicle is being given. The animals, male Sprague-Dawley rats (average body weight 240-290 g), were allowed to acclimatize to the behavioral testing equipment prior to testing. On the testing day, the animals, at least six per treatment group, were given i.p. a single dose of one of the test compounds in a volume of 2.5 ml/kg. Fifteen minutes later, a series of Von Frey filaments (pre-calibrated prior to testing) were applied to the plantar surface of the hind paw, from below. The filaments were applied in ascending order starting with the weakest force and the withdrawal threshold for both the ipsilateral and contralateral hind paws was evaluated. Each filament was indented on the mid-plantar surface of the foot to the point where it just starts to bend; this is repeated approximately 8-10 times per filament at a frequency of approximately 1 Hz. The withdrawal threshold is defined as being the lowest force of two or more consecutive Von Frey's filaments to elicit a reflex withdrawal response (i.e. a brief paw flick) and is measured in grams.
The results are expressed as % increase in the threshold of response to Von Frey's filaments in the test compound treated group versus the vehicle treated animals and per definition the vehicle treated group yields a null baseline value. The black column represents the morphine treated animals (4 mg/kg), the gray and the dotted column bars represent two doses of compound A (0.5 and 1 mg/kg respectively).

[2] = tested on: Male ICR mice; assay: Psychomimetic effects: open field locomotor activity and rectal temperature; assay type: in vivo, mouse; conditions: for hypothermia (rectal body temperature): i.v., end of open-field examination
Description: Male ICR mice (25 g average body weight, Harlan, Israel) are used for a series of tests for psychotropic effects, specifically locomotor activity and rectal temperature. […] Naïve mice were used as control. Each treatment group is composed of at least 6 animals.
Animals were placed in an open field (60×50 cm) 5 minutes after i.v. administration of the treatment or 30 minutes after i.p. injection. Their locomotor activity was recorded using a video based computer system (ViewPoint, France). The following parameters were recorded for 3 minutes: the total distance, the time and the speed traveled by the animals. An additional parameter, rectal body temperature, was monitored at the end of the open-field examination using a thermostat thermometer (Cole Parker Model 8402-00) and a thermostat probe (YSI 400 Model 402).
Results are expressed as mean±SE and the differences between vehicle and treatments are compared by ANOVA, followed by post-hoc Tukey's test.

[3] = tested on: adult male ICR mice; assay: Ear edema model (Croton oil); assay type: in vivo, mouse; conditions: 3 hours after Croton oil
Description: The anti-inflammatory activity of the novel bicyclic CB2 ligands was screened in vivo using an ear edema model in mice. This test system utilizes various inflammation inducers, including Croton oil (CO) and Arachidonic acid (AA) and the outcome is assessed by measuring ear tissue swelling. […] The ability of the test compounds to prevent or diminish the inflammatory response to these stimulants is indicative of their systemic anti-inflammatory capability.
Compound A was dissolved in CREMOPHOR EL®:ethanol and injected i.p. in adult male ICR mice (30 g average body weight, Harlan, Israel) after dilution with sterile 0.9% sodium chloride to desired final concentrations according to required doses. Various doses of compounds were checked ranging from 0 to 30 mg/kg. Each treatment group was composed of 8-10 animals while the vehicle treated group was composed of 16 animals. […] Ear thickness was determined (in 0.01 mm units) 3 hours after CO application using a dial thickness gauge (Mitutoyo, Japan). Finally the ears were trimmed, an ear punch of 6 mm diameter was removed and its weight was measured. The ear edema is expressed as the ratio of ear punch weight of the CO treated ear versus the contralateral Acetone treated ear. Results are calculated as % inhibition as compared to CREMOPHOR EL®:ethanol vehicle treated animals.

[4] = target: T1, human CB1 receptor (Homo sapiens, UniProt P21554); assay: Adenylylcyclase assay: forskolin-activated cAMP in CB1 transfected HEK-293 cells; assay type: cell-based
T1 construct: purchased Perkin Elmer/NEN; host or cells: HEK-293 cells, stably transfected (membranes)
T1 sequence (P21554 whole entry): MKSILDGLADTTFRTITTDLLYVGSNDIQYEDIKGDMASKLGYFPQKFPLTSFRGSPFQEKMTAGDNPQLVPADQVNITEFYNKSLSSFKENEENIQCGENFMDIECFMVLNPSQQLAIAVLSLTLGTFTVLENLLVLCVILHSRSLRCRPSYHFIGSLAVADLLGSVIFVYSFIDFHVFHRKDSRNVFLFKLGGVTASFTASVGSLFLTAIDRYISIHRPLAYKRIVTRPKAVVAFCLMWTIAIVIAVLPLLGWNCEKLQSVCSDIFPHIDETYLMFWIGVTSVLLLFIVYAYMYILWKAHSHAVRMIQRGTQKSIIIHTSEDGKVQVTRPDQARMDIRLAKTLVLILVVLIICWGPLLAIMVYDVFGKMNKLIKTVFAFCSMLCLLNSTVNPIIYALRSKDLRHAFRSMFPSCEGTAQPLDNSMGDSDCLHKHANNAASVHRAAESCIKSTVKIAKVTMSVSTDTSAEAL
Description: Cannabinoids and derivatives bind to G-protein-coupled CB1 and CB2 receptors and exert their activity via the inhibition of adenylylcyclase activity. An adenylylcyclase assay forms a basis for the functional analysis of the compounds by determining their capacity to inhibit or promote forskolin-activated cAMP production. The assay is carried out according to Chin et al. (Chin, C. N. et al., J. Neurochem. 70: 366-73, 1998). Briefly, HEK-293 human kidney cells (ATCC#CRL-1573) stably transfected with either the human CB1 or CB2 receptor (cDNA) were grown in DMEM supplemented with 10% fetal calf serum, 1% Penicillin-Streptomycin and 2 mM L-glutamine. Cells were seeded in 24 wells plate at 5×10^4 cells/well and incubated for 48 hours. Medium was then removed and the adherent cells were washed with PBS. Two hundred μl of serum free medium supplemented with 0.2 mM Ro 20-1724, 0.25% BSA, and 20 mM HEPES was then added to each well. The cells were then activated with 1 μM forskolin in presence of the bicyclic test compounds in concentrations ranging from 10 pM up to 1 μM. The activated cells were then incubated at 37° C. for 20 minutes and the reaction terminated with 1.2 M HCl to a final concentration of 0.1 M. Cells were lyzed by freeze and thaw and the lysate was neutralized with 2 M HEPES, pH 7.5. cAMP was measured in 50 μl aliquots using the [^3H]-cAMP assay system (Amersham).
This experiment was first performed on CB2 receptor transfected cells.

Compound | increase in pain threshold (Von Frey) versus vehicle ([1]; 5 mg/kg, separate experiment) | total distance covered ([2]; 1, 2, 3, 4, 5 and 6 mg/kg i.v., 3 minutes open field) | hypothermia (rectal body temperature) [2] | ED50 ([3]; Mus musculus, ip) | ED50 ear edema ([3]; i.p.) | increase in pain threshold (Von Frey) versus vehicle ([1]; 0.5 mg/kg i.p., 15 minutes) | increase in pain threshold (Von Frey) versus vehicle ([1]; 1 mg/kg i.p., 15 minutes) | IC50 [4] | inhibition at 1 µM ([4]; HEK293, CB1 transfected HEK-293, 1 μM forskolin, read-out: maximal inhibition at 1 μM)
CCCCCCC(C)(C)c1cc(OC)c(C2C=C(CO)C3CC2C3(C)C)c(OC)c1 (single isomer, unassigned; (+)) [HU-308, (+) {4-[4-(1,1-dimethylheptyl)-2,6-dimethoxy-phenyl]-6,6-dimethyl-bicyclo[3.1.1]hept-2-en-2-yl}-methanol, reference compound] | 117% | – | – | – | – | – | – | – | –
CCCCCCC(C)(C)c1cc(O)c([C@H]2CC(=O)[C@H]3C[C@@H]2C3(C)C)c(OC(=O)CCC(=O)O)c1 [Compound R, (−)-4-{4-[1,1-Dimethyl-heptyl]-2-succinate-6-hydroxy-phenyl}-6,6-dimethyl-bicyclo[3.1.1]heptan-2-one] | – | fluctuations in total distance covered and again this phenomenon had no statistical significance | about 2 °C | – | – | – | – | – | –
CCCCCCC(C)(C)c1cc(O)c(C2CC(=O)C3CC2C3(C)C)c(O)c1 (single isomer, unassigned; (-)) [Compound A, (−)-4-[4-(1,1-Dimethyl-heptyl)2,6-dihydroxy-phenyl]-6,6-dimethyl-bicyclo[3.1.1)heptan-2-one] | – | – | about 2 °C | 30 mg/kg | 81 µmol/kg | 71% | 64% | 10.3 nM | 69%
